Source: patent publication US8088818B2, “Catechol-based derivatives for treating or preventing diabetics” (National Taiwan University, priority 2006, dated 2012)

Columns and labels:
[1] = system: Type 2 diabetic rats; assay: Blood sugar lowering in insulin-induced type 2 diabetic rats after oral administration; assay type: in vivo, rat
Procedure: (c) Insulin-induced type 2 diabetic rats: the abdominal cavity of the male Wistar rats of 12 weeks age are injected with 0.5 IU/kg long-term insulin (MonotardR HM) three times a day for fourteen days. Then, the 10 mg/kg tolbutamide, an anti-diabetic drug of sulfonylurea class, is injected into the abdominal cavity. Phlebotomize 0.1 ml blood respectively at the preadministration and the postadministration of sixty minutes, and calculate the reduced value of the blood sugar. If the variation of the ability of lowering blood sugar is less than 10%, which is deemed as the type II (insulin resistance) diabetes rat.
(§1) (d) The administration: Dissolve the medicine equivalently in deionized water, and then administrate the mentioned solution into the normal and diabetic rats by an orally perfusion. Keep with the desired concentration of the perfusion amount by taking suitable amount of the medicine solution according to the weight of the different animal.
(§2) The rats to be experimented should undergo a starvation for 8-12 hours overnight. Next day, the rats are anesthetized with 30 mg/kg pentobarbital by injecting into the abdominal cavity. After the rats fall asleep, fix the rats on the board with the rubber band. Open the groin, find the veins, bleed 0.1 ml blood from an empty stomach, and then feed the medicine into the body of the rats by taking orally. After 90 minutes, bleed and perform a centrifugation (13,000 rpm, 5 minutes) to separate the serum and the plasma. Take the 10 μl supernatant of the serum and add 1 ml reagent of the glucose kit thereinto by gently mixing. React for 5 minutes at 37 °C, followed by detecting the value of the blood sugar by means of BST330 based on the different absorption level. […] The value of the blood sugar (mg/dL) is calculated by comparing the level of redness with contrasting the standard curve.
(§3) (The value of blood sugar at postadministration)−(The value of blood sugar at preadministration)/(The value of blood sugar at preadministration)×100%

[2] = system: Type 1 diabetic rats; assay: Blood sugar lowering in streptozotocin-induced type 1 diabetic rats after oral administration; assay type: in vivo, rat; conditions: for % decrease in plasma glucose: type 1 diabetic rats, 90 min
Procedure: (b) Streptozocin-induced type 1 diabetic rats: the male Wistar rats of 8 weeks age undergo a starvation for 72 hours, followed by anaesthetizing the rats by injecting with 30 mg/kg pentobarbital into the abdominal cavity. After the rats fall asleep, 60 mg/kg streptozotocin (STZ) is administrated by an intravenous injection. After a week, phlebotomize and obtain a value of blood sugar by a glucose kit, wherein the glucose kit is further analyzed by Biosystem S.A., Barcelona Spain, BST330. While the value of the blood sugar is greater than 400 mg/dL and the typical three symptoms, eating more, drink more, micturition occur, it is deemed as Type 1 Diabetic rats.
as §1, §2, §3
The results of the experiments are presented in the average value±the standard error (mean±SE), and the variations therebetween are evaluated according to the Student's t-test, while the variations thereamong are evaluated according to one-way ANOVA and Bonferroni's t-test, wherein P<0.05 is deemed to have apparent differences.

[3] = system: type I diabetic rats; assay: Safety evaluation: survival rate of type I diabetic rats; assay type: in vivo, rat; conditions: for Survival rate (%) of rats: p.o., after seven days
Procedure: Table 13 is a safety evaluation, wherein the type I diabetic rats are respectively orally administrated with the compound 370G at the dosage of 10 mg/kg and 30 mg/kg.

[4] = system: rats with coronary artery ligature-reperfusion; assay: Coronary artery ligature / reperfusion model of the living rat (area at risk, infarct size); assay type: in vivo; conditions: ischaemia 45 minutes, reperfusion two hours
Procedure: The grown-up male rats having the weight of 250˜300 grams (Sprague-Dawley strain, purchased BioLASCO Taiwan Co., Ltd.) are anesthetized with 1.25 g/kg urethane by the abdominal cavity injection. After anaesthetization, cut the trachea, connect with the artificial respirator (Harvard Rodent Ventilator Model 983), give 15 ml/kg of the tidal volume, and control the respiratory rate at […], followed by cutting off both sides of the vagus immediately. After the intubation of the right arterial carotis, it is connected to the pressure converter (Statham P23XL transducer) so as to monitor the changes of systemic blood pressure. In addition, the rats' four limbs are connected to the silver electrode, so as to record the changes of the electrocardiogram (ECG). Blood pressures, heartbeats and electrocardiogram curves are recorded and analyzed by the software (MacLab data acquisition system, AD Instrument Pty, Castle Hill, NSW, Australia).
After all previous preparations have been done, open the ribcage by the thoracotomy and cut off the skin layers and muscles to find the rib. Burn the fourth and fifth rib close to 2 mm of the sternum in an electrical knife and stabilize the injury with the retractor followed by rending the pericardial membrane, separating the left atrial appendage gently by the cottons, and clasping the anterior interventricular branch of the left coronary artery immediately between the left atrial appendage and the pulmonary artery by a needle forceps having a silk yarn with a hook. Put loops on both ends of silk yarn to seal the wound by unclamping the retractor. Balance in 15 minutes, and if there exists cardiac arrhythmia or the systolic pressure is lower than 80 mmHg, it will be eliminated.
After the balance, the acute cardiac muscle ischaemia is caused by pushing the loop passed by a silk yarn with a hemostat downwards to be stabilized. Then, unclamp the hemostat and uplift the loop to perform a reperfusion of the coronary artery being ligated by the silk yarn. […] If the same surgical procedure is performed, the rat without administrating the drug and performing an ischaemia and an ischaemia/reperfusion is regarded as the sham group. The rundown of the ischaemia and the ischaemia/reperfusion of the present test is as follows.
Perform an ischaemia for 45 minutes and perform an ischaemia/reperfusion for 2 hours. Administrate by injecting the drug into the abdominal cavity after perform the ischaemia for 15 minutes.
Inject the approximately 2 ml, 1% methylene blue into the ischaemic area via a jugular vein, where the non-ischemic area is dyed as purple and the ischemic area or area at risk is retained as red. Subsequently, the heart is immediately took out and washed by the physiological salt solution to remove the connective tissue of the atrium and the surplus water. Cut the undyed ischemic area and weight the total ventricle to calculate the ischemic area of the ventricle. Area at risk (% of total ventricular)=(Weight of risk area)/(Total ventricular weight)×100%.
Cut the ischemic area into a slice with the thickness of approximately 1 mm. Immerse the slice into a TTC (2,3,5-triphenyltetrazolium chloride, in saline) solution, and heat the resultant solution at the 37[…] incubator for 30 minutes, followed by replacing the solvent with 10% formaldehyde solution to preserve the resulting solution for two weeks. The living cells are able to produce the dehydrogenase, which could reduce TTC to a crimson formazan precipitate, whereas the dead cells are unable to produce dehydrogenase, which decolor the formazan as a gray precipitate. Cut and weight the gray infraction area and calculate the ratio. Infract Size (% of risk area)=(Weight of infraction)/(Weight of risk area)×100%.

O=C(/C=C/c1ccc(O)c(O)c1)NCCc1ccccc1 [370G (45)]
% decrease in plasma glucose ([1]; type 2 diabetic rats, 0.05 mg/kg oral, 90 min): 7.4 ± 2.6%
% decrease in plasma glucose ([1]; type 2 diabetic rats, 0.1 mg/kg oral, 90 min): 17.2 ± 2.6 %
% decrease in plasma glucose ([1]; type 2 diabetic rats, 0.5 mg/kg oral, 90 min): 20.1 ± 3.4 %
% decrease in plasma glucose ([1]; type 2 diabetic rats, 1.0 mg/kg oral, 90 min): 23.3 ± 3.3 %
% decrease in plasma glucose ([1]; type II diabetic rats, 0.5 mg/kg, p.o., 90 minutes): 20.0 ± 7.7%
reducing the blood sugar (in words) ([1]; type II diabetics rats, oral 0.05 to 1.0 mg/kg): phenomenon of reducing the blood sugar are shown
% decrease in plasma glucose ([2]; 0.1 mg/kg oral): 11.8 ± 5.5 %
% decrease in plasma glucose ([2]; 0.5 mg/kg oral): 13.8 ± 4.3 %
% decrease in plasma glucose ([2]; 1.0 mg/kg oral): 11.6 ± 1.7 %
effect for reducing the blood sugar, compared among rat models ([2]; type I diabetic rat): weakest effect
Survival rate (%) of rats ([3]; 10 mg/kg): 100%
Survival rate (%) of rats ([3]; 30 mg/kg): 100%
effect on survival rate (in words) ([3]; oral 10 mg/kg and 30 mg/kg, seven days): do not affect the survival rate
ratio of the areas at risk in the overall area ([4]; 15 mg/kg): 41.1±1.3%
ratio of the areas at risk in the overall area ([4]; 10^−6 mg/kg): 39.1±1.9%
infract size (% of risk area) ([4]; 10^−5 mole/kg (approximately 2.8 mg/kg)): 68.8±2.9%
infract size (% of risk area) ([4]; 10^−6 mole/kg (approximately 0.28 mg/kg)): 70.9±2.8
infract size (% of risk area) [4]: 62.8±1.8%
ratio of the areas at risk in the overall area [4]: 36.7±2.3%
